Test results: the supplement of paper PMC10307832

Legend:
Assay in all cases: relative viability (nuclei count vs DMSO), 5 days (fraction); higher = more cells survive
HCC-78 = tested on: HCC-78
In short: (§1)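 Relative viability is defined as nuclei in treated wells over nuclei in vehicle wells. Duplicate plates were run and medians reported. Lung cancer cell lines in 1536-well plates were dosed by pin tool one day after seeding, with one drug or with a fixed anchor-drug dose plus five library-drug doses (not always all listed) in √10 steps, and nuclei were counted after 5 days.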

NCI-H1975 = tested on: NCI-H1975
In short: as §1

NCI-H2126 = tested on: NCI-H2126
In short: as §1

EMC-BAC-2 = tested on: EMC-BAC-2
In short: as §1

NCI-H1944 = tested on: NCI-H1944
In short: as §1

HCC-366 = tested on: HCC-366
In short: as §1

HCC-44 = tested on: HCC-44
In short: as §1

NCI-H838 = tested on: NCI-H838
In short: as §1

NCI-H1355 = tested on: NCI-H1355
In short: as §1

NCI-H2087 = tested on: NCI-H2087
In short: as §1

NCI-H2347 = tested on: NCI-H2347
In short: as §1

NCI-H2009 = tested on: NCI-H2009
In short: as §1

NCI-H1734 = tested on: NCI-H1734
In short: as §1

NCI-H522 = tested on: NCI-H522
In short: as §1

NCI-H727 = tested on: NCI-H727
In short: as §1

HOP-62 = tested on: HOP-62
In short: as §1

PC-3 [JPC-3] = tested on: PC-3 [JPC-3]
In short: as §1

ChaGo-K-1 = tested on: ChaGo-K-1
In short: as §1

SW 1573 = tested on: SW 1573
In short: as §1

LC-2-ad = tested on: LC-2-ad
In short: as §1

NCI-H441 = tested on: NCI-H441
In short: as §1

UMC-11 = tested on: UMC-11
In short: as §1

SK-LU-1 = tested on: SK-LU-1
In short: as §1

Compound: C=C1C(=O)O[C@@H](CCCCCCCC)[C@@H]1C(=O)O [C-75] + Nc1ncn([C@H]2C[C@H](O)[C@@H](CO)O2)c(=O)n1 [Decitabine] (partner 2 µM)
- relative viability (HCC-78; first compound 0.08 µM): 0.693
- relative viability (HCC-78; first compound 0.253 µM): 0.676
- relative viability (HCC-78; first compound 0.8 µM): 0.72
- relative viability (HCC-78; first compound 8 µM): 0.667
- relative viability (NCI-H1975; first compound 0.08 µM): 0.373
- relative viability (NCI-H1975; first compound 0.253 µM): 0.334
- relative viability (NCI-H1975; first compound 0.8 µM): 0.32
- relative viability (NCI-H1975; first compound 2.53 µM): 0.299
- relative viability (NCI-H1975; first compound 8 µM): 0.431
- relative viability (NCI-H2126; first compound 0.08 µM): 0.598
- relative viability (NCI-H2126; first compound 0.253 µM): 0.617
- relative viability (NCI-H2126; first compound 0.8 µM): 0.609
- relative viability (NCI-H2126; first compound 2.53 µM): 0.561
- relative viability (NCI-H2126; first compound 8 µM): 0.534
- relative viability (EMC-BAC-2; first compound 0.08 µM): 1.02
- relative viability (EMC-BAC-2; first compound 0.253 µM): 0.984
- relative viability (EMC-BAC-2; first compound 0.8 µM): 0.983
- relative viability (EMC-BAC-2; first compound 2.53 µM): 0.834
- relative viability (EMC-BAC-2; first compound 8 µM): 0.947
- relative viability (NCI-H1944; first compound 0.08 µM): 0.423
- relative viability (NCI-H1944; first compound 0.253 µM): 0.471
- relative viability (NCI-H1944; first compound 0.8 µM): 0.35
- relative viability (NCI-H1944; first compound 2.53 µM): 0.368
- relative viability (NCI-H1944; first compound 8 µM): 0.461
- relative viability (HCC-366; first compound 0.08 µM): 0.357
- relative viability (HCC-366; first compound 0.253 µM): 0.361
- relative viability (HCC-366; first compound 0.8 µM): 0.385
- relative viability (HCC-366; first compound 2.53 µM): 0.344
- relative viability (HCC-366; first compound 8 µM): 0.289
- relative viability (HCC-44; first compound 0.08 µM): 1.02
- relative viability (HCC-44; first compound 0.253 µM): 0.922
- relative viability (HCC-44; first compound 0.8 µM): 0.946
- relative viability (HCC-44; first compound 2.53 µM): 0.8
- relative viability (HCC-44; first compound 8 µM): 0.903
- relative viability (NCI-H838; first compound 0.08 µM): 0.445
- relative viability (NCI-H838; first compound 0.253 µM): 0.45
- relative viability (NCI-H838; first compound 0.8 µM): 0.434
- relative viability (NCI-H838; first compound 2.53 µM): 0.369
- relative viability (NCI-H838; first compound 8 µM): 0.372
- relative viability (NCI-H1355; first compound 0.08 µM): 0.333
- relative viability (NCI-H1355; first compound 0.253 µM): 0.374
- relative viability (NCI-H1355; first compound 0.8 µM): 0.36
- relative viability (NCI-H1355; first compound 2.53 µM): 0.324
- relative viability (NCI-H1355; first compound 8 µM): 0.355
- relative viability (NCI-H2087; first compound 0.08 µM): 0.281
- relative viability (NCI-H2087; first compound 0.253 µM): 0.269
- relative viability (NCI-H2087; first compound 0.8 µM): 0.35
- relative viability (NCI-H2087; first compound 2.53 µM): 0.217
- relative viability (NCI-H2087; first compound 8 µM): 0.231
- relative viability (NCI-H2347; first compound 0.08 µM): 0.673
- relative viability (NCI-H2347; first compound 0.253 µM): 0.626
- relative viability (NCI-H2347; first compound 0.8 µM): 0.653
- relative viability (NCI-H2347; first compound 2.53 µM): 0.572
- relative viability (NCI-H2347; first compound 8 µM): 0.659
- relative viability (NCI-H2009; first compound 0.08 µM): 0.37
- relative viability (NCI-H2009; first compound 0.253 µM): 0.393
- relative viability (NCI-H2009; first compound 0.8 µM): 0.327
- relative viability (NCI-H2009; first compound 2.53 µM): 0.314
- relative viability (NCI-H2009; first compound 8 µM): 0.338
- relative viability (NCI-H1734; first compound 0.08 µM): 0.516
- relative viability (NCI-H1734; first compound 0.253 µM): 0.589
- relative viability (NCI-H1734; first compound 0.8 µM): 0.457
- relative viability (NCI-H1734; first compound 2.53 µM): 0.264
- relative viability (NCI-H1734; first compound 8 µM): 0.448
- relative viability (NCI-H522; first compound 0.08 µM): 0.741
- relative viability (NCI-H522; first compound 0.253 µM): 0.693
- relative viability (NCI-H522; first compound 0.8 µM): 0.763
- relative viability (NCI-H522; first compound 2.53 µM): 0.555
- relative viability (NCI-H522; first compound 8 µM): 0.599
- relative viability (NCI-H727; first compound 0.08 µM): 0.887
- relative viability (NCI-H727; first compound 0.253 µM): 0.955
- relative viability (NCI-H727; first compound 0.8 µM): 0.807
- relative viability (NCI-H727; first compound 2.53 µM): 0.767
- relative viability (NCI-H727; first compound 8 µM): 0.873
- relative viability (HOP-62; first compound 0.08 µM): 0.22
- relative viability (HOP-62; first compound 0.253 µM): 0.217
- relative viability (HOP-62; first compound 0.8 µM): 0.218
- relative viability (HOP-62; first compound 2.53 µM): 0.23
- relative viability (HOP-62; first compound 8 µM): 0.161
- relative viability (PC-3 [JPC-3]; first compound 0.08 µM): 0.78
- relative viability (PC-3 [JPC-3]; first compound 0.253 µM): 0.798
- relative viability (PC-3 [JPC-3]; first compound 0.8 µM): 0.782
- relative viability (PC-3 [JPC-3]; first compound 2.53 µM): 0.793
- relative viability (PC-3 [JPC-3]; first compound 8 µM): 0.91
- relative viability (ChaGo-K-1; first compound 0.08 µM): 0.505
- relative viability (ChaGo-K-1; first compound 0.253 µM): 0.504
- relative viability (ChaGo-K-1; first compound 0.8 µM): 0.503
- relative viability (ChaGo-K-1; first compound 2.53 µM): 0.423
- relative viability (ChaGo-K-1; first compound 8 µM): 0.552
- relative viability (SW 1573; first compound 0.08 µM): 0.464
- relative viability (SW 1573; first compound 0.253 µM): 0.51
- relative viability (SW 1573; first compound 0.8 µM): 0.434
- relative viability (SW 1573; first compound 2.53 µM): 0.385
- relative viability (SW 1573; first compound 8 µM): 0.351
- relative viability (LC-2-ad; first compound 0.08 µM): 0.785
- relative viability (LC-2-ad; first compound 0.253 µM): 0.809
- relative viability (LC-2-ad; first compound 0.8 µM): 0.755
- relative viability (LC-2-ad; first compound 2.53 µM): 0.771
- relative viability (LC-2-ad; first compound 8 µM): 0.837
- relative viability (NCI-H441; first compound 0.08 µM): 0.299
- relative viability (NCI-H441; first compound 0.253 µM): 0.23
- relative viability (NCI-H441; first compound 0.8 µM): 0.287
- relative viability (NCI-H441; first compound 8 µM): 0.212
- relative viability (UMC-11; first compound 0.08 µM): 0.696
- relative viability (UMC-11; first compound 0.253 µM): 0.642
- relative viability (UMC-11; first compound 0.8 µM): 0.577
- relative viability (UMC-11; first compound 2.53 µM): 0.642
- relative viability (UMC-11; first compound 8 µM): 0.434
- relative viability (SK-LU-1; first compound 0.08 µM): 0.64
- relative viability (SK-LU-1; first compound 0.253 µM): 0.588
- relative viability (SK-LU-1; first compound 0.8 µM): 0.616
- relative viability (SK-LU-1; first compound 2.53 µM): 0.532
- relative viability (SK-LU-1; first compound 8 µM): 0.467
